Test results reported in PubChem BioAssay AID2077 (NMMLSC, 2009).
Active and inactive are the calls of the source. No rule for the calls is given here.

Target: Bcl-2-like protein 10 (Homo sapiens) (UniProt Q9HD36)
Test: inhibitors of Bim-Bcl-B binding, confirmation, biochemical, dose response, multiplexed HTS hits (AID 2077)
Conditions: bead-based flow cytometry, Bim peptide-Bcl-B binding

Sequence of Bcl-2-like protein 10 (Homo sapiens) (Q9HD36 whole entry, looked up): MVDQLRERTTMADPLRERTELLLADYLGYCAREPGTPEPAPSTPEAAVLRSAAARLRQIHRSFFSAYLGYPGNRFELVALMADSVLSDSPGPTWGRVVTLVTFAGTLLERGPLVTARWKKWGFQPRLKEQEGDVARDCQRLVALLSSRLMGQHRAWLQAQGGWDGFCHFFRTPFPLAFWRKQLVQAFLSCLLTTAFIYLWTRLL

| SMILES | EC50 |
| --- | --- |
| COc1ccc(N2C(=O)C(Cl)=C(NC3C(=O)N(c4ccccc4)N(C)C3C)C2=O)cc1 (stereo unspecified) | 620 nM |

Same assay, conditions: bead-based flow cytometry, Bim peptide-Bcl-B binding; at 100 µM (top of the series)

| response change, negative = inhibition | SMILES |
| --- | --- |
| inactive | O=C1C(Cl)=C(N2CCN(c3ccccc3[N+](=O)[O-])CC2)C(=O)c2ccccc21 |
| inactive | CCN(CC)c1ccc(NC(=O)COc2ccccc2C)cc1S(=O)(=O)Nc1ccccc1OC |
| inactive | Cc1cc2nn(-c3cccc4ccccc34)nc2cc1N |
| inactive | O=C(/C=C/c1ccc(-c2ccccc2[N+](=O)[O-])o1)c1ccccc1 |
| inactive | COc1ccccc1NC1=C(NC(C)=O)C(=O)c2ccccc2C1=O |
| inactive | Cc1ccc(-c2nc3c(c(=O)[nH]c(=O)n3Cc3ccccc3)n2C)o1 |
| inactive | CCN(CC)C(=O)COC(=O)c1cc(-c2ccco2)nc2ccccc12 |
| inactive | CCN(CC)c1ccc(NC(=O)c2ccccc2F)cc1S(=O)(=O)Nc1ccccc1OC |
| inactive | Cc1ccc(-c2cc(C(=O)Nc3nccs3)c3ccccc3n2)o1 |
| inactive | O=C1c2ccccc2C(=O)N1CN(C(=O)COc1ccc(Cl)cc1Cl)c1cccc(F)c1 |

The remaining lines, values behind:

| SMILES | response change, negative = inhibition |
| --- | --- |
| C=CS(=O)(=O)c1sc(Cl)c(N2CCOCC2)c1[N+](=O)[O-] | inactive |
| CC(=O)OCCCNc1cc(Sc2nc3ccccc3s2)c2nonc2c1[N+](=O)[O-] | inactive |
| CNC(CC(=O)c1ccc([N+](=O)[O-])cc1)C(Cl)(Cl)Cl (stereo unspecified) | inactive |
| COc1cc(N=C2SSNC2Cl)c(OC)cc1Cl (stereo unspecified) | inactive |
| Cc1ccc(-c2cc(-c3ccc(C)o3)nc(N)c2C#N)cc1 | inactive |
| Oc1ccc(NCc2ccccc2OCc2ccccc2)cc1 | inactive |
| COc1ccc(CCNC(=O)c2ccc3nc(-c4ccco4)c(-c4ccco4)nc3c2)cc1OC | inactive |
| CNC1CCC(Br)CC(C(=O)/C=C/c2cccc(OC)c2OC)C1=O (stereo unspecified) | inactive |
| CCN1C(=O)/C(=C\C=C2/C=CC=CN2CC)SC1=S | inactive |
| COc1cc(CNc2ccc3[nH]c(=O)[nH]c3c2)cc(Br)c1OCC(=O)NC(C)(C)C | inactive |
| O=[N+]([O-])c1c(NCCCO)cc(Sc2nc3ccccc3s2)c2nonc12 | inactive |
| CN(CCO)c1cc(Sc2nc3ccccc3s2)c2nonc2c1[N+](=O)[O-] | inactive |
| CCOc1ccccc1CNc1ccc(O)cc1 | inactive |
| Cc1nnc(Sc2cc(NCCO)c([N+](=O)[O-])c3nonc23)s1 | inactive |
| Cc1ccc(-c2cc(-c3ccc(F)cc3)c(C#N)c(N)n2)o1 | inactive |
